The assay deals with T1, SIRT1 (Homo sapiens, UniProt Q96EB6).
T1 sequence (Q96EB6 1-747): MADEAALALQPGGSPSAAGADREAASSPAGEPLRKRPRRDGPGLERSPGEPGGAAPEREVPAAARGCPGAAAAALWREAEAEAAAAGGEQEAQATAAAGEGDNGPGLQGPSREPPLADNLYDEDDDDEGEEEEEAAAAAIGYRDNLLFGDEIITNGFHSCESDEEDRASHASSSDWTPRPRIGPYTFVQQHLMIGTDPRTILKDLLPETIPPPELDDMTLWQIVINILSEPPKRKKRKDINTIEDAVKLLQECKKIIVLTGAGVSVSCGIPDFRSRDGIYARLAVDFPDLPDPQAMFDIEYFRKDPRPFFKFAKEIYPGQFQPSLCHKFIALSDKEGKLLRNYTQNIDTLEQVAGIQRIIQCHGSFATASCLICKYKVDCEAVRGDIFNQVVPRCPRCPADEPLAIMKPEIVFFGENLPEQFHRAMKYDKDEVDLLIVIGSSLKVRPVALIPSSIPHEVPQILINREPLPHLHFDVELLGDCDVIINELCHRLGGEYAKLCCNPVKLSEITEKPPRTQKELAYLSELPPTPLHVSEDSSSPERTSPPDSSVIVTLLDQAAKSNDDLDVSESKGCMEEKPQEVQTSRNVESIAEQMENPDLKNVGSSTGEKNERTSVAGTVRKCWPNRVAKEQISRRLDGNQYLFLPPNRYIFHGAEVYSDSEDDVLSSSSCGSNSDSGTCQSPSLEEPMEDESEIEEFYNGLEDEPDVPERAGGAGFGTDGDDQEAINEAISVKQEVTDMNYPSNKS
Nature of the assay: Mass spectrometry based assay of SIRT1 activity. Format: biochemical. Further details: key to FOLD ACTIVATION MS: A: Fold activation >250%; B: Fold Activation <250%; C: no fold activation. The following applies: for EC50: activation of SIRT1, read-out: ED50 MS. On the procedure:
The mass spectrometry based assay utilizes a peptide having 20 amino acid residues as follows: […] The sequence of the peptide substrate is based on p53 with several modifications. […] Test compounds may be added to the reaction as described above. […] After the 25 minute incubation with SIRT1, 10 μL of 10% formic acid is added to stop the reaction. Reactions are sealed and frozen for later mass spec analysis. Determination of the mass of the substrate peptide allows for precise determination of the degree of acetylation (i.e. starting material) as compared to deacetylated peptide (product). […] This timepoint is the same as that used for test compounds and, within the linear range, the endpoint represents a change in velocity. For each of the above assays, SIRT1 protein was expressed and purified as follows. The SirT1 gene was cloned into a T7-promoter containing vector and transformed into BL21(DE3). The protein was expressed by induction with 1 mM IPTG as an N-terminal His-tag fusion protein at 18° C. overnight and harvested at 30,000×g. […] The protein was purified over a Ni-NTA column (Amersham) and fractions containing pure protein were pooled, concentrated and run over a sizing column (Sephadex S200 26/60 global). The peak containing soluble protein was collected and run on an Ion-exchange column (MonoQ). […] This protein was concentrated and dialyzed against dialysis buffer (20 mM Tris-HCl, 2 mM TCEP) overnight. The protein was aliquoted and frozen at −80° C. until further use.

Structures are written as SMILES.

Regarding `O=C(Nc1cccc(-c2nc3ncccc3o2)c1)c1cccc(OC(F)(F)F)c1` [Compound 50], the EC50 was > 150 µM.

On to `COc1ccc(C(=O)Nc2cccc(-c3nc4ncccc4o3)c2)cc1` [Compound 54], for which the EC50 was > 150 µM.

Regarding `O=C(Nc1cccc(-c2nc3ncccc3o2)c1)c1ccccc1N1CCOCC1` [Compound 109], the “FOLD ACTIVATION MS” value is given as “B (Fold Activation <250%)” and the EC50 is < 50 µM.

For the compound `COc1ccc(C(=O)Nc2cccc(-c3nc4ncccc4o3)c2)cc1Cl` [Compound 110], the EC50 was in the range of 101 to 150 µM.

For the compound `CN(C)c1cccc(C(=O)Nc2cccc(-c3nc4cccnc4o3)c2)c1` [Compound 111], the “FOLD ACTIVATION MS” value is recorded as “B (Fold Activation <250%)” and the EC50 was < 50 µM.

On to `COc1ccc(C(=O)Nc2cccc(-c3nc4cccnc4o3)c2)cc1OC` [Compound 112], for which the “FOLD ACTIVATION MS” value was “B (Fold Activation <250%)” and the EC50 was < 50 µM.

For `CN(C)c1cccc(C(=O)Nc2cccc(-c3nc4ccncc4s3)c2)c1` [Compound 113], the “FOLD ACTIVATION MS” value is recorded as “B (Fold Activation <250%)” and the EC50 was < 50 µM.

Take `COc1ccc(C(=O)Nc2cccc(-c3nc4ccncc4s3)c2)cc1OC` [Compound 114]: the “FOLD ACTIVATION MS” value was “A (Fold activation >250%)” and the EC50 is < 50 µM.

As to `COc1cc(C(=O)Nc2cccc(-c3nc4ccncc4s3)c2)cc(OC)c1OC` [Compound 115], the “FOLD ACTIVATION MS” value is listed as “A (Fold activation >250%)” and the EC50 was < 50 µM.

For `COc1ccc(C(=O)Nc2cccc(-c3cnc4ccccc4n3)c2)cc1OC` [Compound 116], the EC50 fell in the range of 101 to 150 µM.

For `COc1ccc(C(=O)Nc2cccc(-c3nc4cc(C)ccc4[nH]3)c2)cc1OC` [Compound 117], the “FOLD ACTIVATION MS” value is listed as “A (Fold activation >250%)” and the EC50 is < 50 µM.

Take `COc1cc(C(=O)Nc2cccc(-c3cn4ccsc4n3)c2)cc(OC)c1OC` [Compound 118]: the “FOLD ACTIVATION MS” value is listed as “A (Fold activation >250%)” and the EC50 is < 50 µM.

For the compound `COc1cccc(OC)c1C(=O)Nc1cccc(-c2nc3ccccc3o2)c1` [Compound 119], the “FOLD ACTIVATION MS” value is on record as “B (Fold Activation <250%)” and the EC50 is < 50 µM.

Regarding `COc1cccc(C(=O)Nc2cccc(-c3nc4cc(Cl)cc(Cl)c4o3)c2)c1` [Compound 121], the “FOLD ACTIVATION MS” value is given as “C” and the EC50 was > 150 µM.

Regarding `COc1ccc(C(=O)Nc2cccc(-c3nc4cc(C(C)C)ccc4o3)c2)cc1OC` [Compound 122], the EC50 was in the range of 101 to 150 µM.

With `COc1ccc(C(=O)Nc2cccc(-c3nc4ccccc4s3)c2)c(OC)c1` [Compound 124], the “FOLD ACTIVATION MS” value was “B (Fold Activation <250%)” and the EC50 was < 50 µM.

As for `COc1cc(C(=O)Nc2cccc(-c3nc4ccccc4c(=O)o3)c2)cc(OC)c1OC` [Compound 125], the “FOLD ACTIVATION MS” value is listed as “B (Fold Activation <250%)” and the EC50 was 51 to 100 µM.

On to `COc1cccc(OC)c1C(=O)Nc1cccc(-c2nc3ccccc3[nH]2)c1` [Compound 126], for which the “FOLD ACTIVATION MS” value is “B (Fold Activation <250%)” and the EC50 is < 50 µM.

In the case of `COc1cc(C(=O)Nc2cccc(-c3nc4ccc(C)cc4o3)c2)cc(OC)c1OC` [Compound 127], the “FOLD ACTIVATION MS” value is “A (Fold activation >250%)” and the EC50 was < 50 µM.

For `COc1ccc(C(=O)Nc2cccc(-c3cn4ccc(C)cc4n3)c2)c(OC)c1` [Compound 128], the “FOLD ACTIVATION MS” value is given as “B (Fold Activation <250%)” and the EC50 is < 50 µM.

As to `COc1cc(C(=O)Nc2cccc(-c3cn4ccc(C)cc4n3)c2)cc(OC)c1OC` [Compound 129], the “FOLD ACTIVATION MS” value was “A (Fold activation >250%)” and the EC50 was < 50 µM.

`COc1ccc(C(=O)Nc2cccc(-c3cn4ccc(C)cc4n3)c2)cc1` [Compound 130]: the “FOLD ACTIVATION MS” value is listed as “B (Fold Activation <250%)” and the EC50 is < 50 µM.

On to `COc1cc(C(=O)Nc2cccc(-c3cn4cccc(C)c4n3)c2)cc(OC)c1OC` [Compound 131], for which the “FOLD ACTIVATION MS” value is recorded as “A (Fold activation >250%)” and the EC50 is < 50 µM.

Take `COc1ccccc1C(=O)Nc1cccc(-c2cn3ccsc3n2)c1` [Compound 132]: the “FOLD ACTIVATION MS” value is listed as “A (Fold activation >250%)” and the EC50 was < 50 µM.

As for `COC(=O)c1cc(NC(=O)c2cc(OC)c(OC)c(OC)c2)cc(-c2nc3ccncc3s2)c1` [Compound 133, methyl 3-(thiazolo[5,4-c]pyridin-2-yl)-5-(3,4,5-trimethoxybenzamido)benzoate], the “FOLD ACTIVATION MS” value is listed as “B (Fold Activation <250%)” and the EC50 was < 50 µM.

For `COc1cc(C(=O)Nc2cc(C(=O)O)cc(-c3nc4ccncc4s3)c2)cc(OC)c1OC` [Compound 134, 3-(thiazolo[5,4-c]pyridin-2-yl)-5-(3,4,5-trimethoxybenzamido)benzoic acid], the “FOLD ACTIVATION MS” value was “B (Fold Activation <250%)” and the EC50 is < 50 µM.

`COc1cc(C(=O)Nc2cc(CO)cc(-c3nc4ccncc4s3)c2)cc(OC)c1OC` [Compound 135]: the “FOLD ACTIVATION MS” value is “B (Fold Activation <250%)” and the EC50 is < 50 µM.

For the compound `COc1ccc(C(=O)Nc2cc(C(=O)O)cc(-c3nc4ncccc4o3)c2)cc1OC` [Compound 137], the EC50 was > 150 µM.

`CN(C)c1cccc(C(=O)Nc2cc(C(=O)N3CCNCC3)cc(-c3nc4ncccc4o3)c2)c1` [Compound 138]: the “FOLD ACTIVATION MS” value was “B (Fold Activation <250%)” and the EC50 was < 50 µM.

For `COc1ccc(C(=O)Nc2cc(C(=O)N3CCNCC3)cc(-c3nc4ncccc4o3)c2)c(OC)c1` [Compound 139], the “FOLD ACTIVATION MS” value is listed as “B (Fold Activation <250%)” and the EC50 was < 50 µM.

As for `COc1ccc(C(=O)Nc2cc(C(=O)N3CCNCC3)cc(-c3nc4ncccc4o3)c2)cc1OC` [Compound 164], the “FOLD ACTIVATION MS” value is “B (Fold Activation <250%)” and the EC50 is < 50 µM.

For the origin of these results see US20090163476A1, “N-Phenyl Benzamide Derivatives as Sirtuin Modulators” (Sirtris Pharmaceuticals, Inc., priority 2005, published 2009).
